Our source for the IC50 values is patent publication US8828997B2, “2,3-dihydro-1H-imidazo(1,2-a)pyrimidin-5-one derivatives, preparation thereof, and pharmaceutical use thereof” (Sanofi, priority 2009, dated 2014).

Each structure is given as a SMILES string.

The test system of the experiment is AKT protein phosphorylated on serine 473 (pAKT-S473) in PC3 human prostate carcinoma cells. Kind of experiment: pAKT expression in PC3 human prostate carcinoma cells measured by western blotting (test A). To be noted: PC-3, 1 to 2 h incubation, absolute IC50. Type of experiment: cell-based. The procedure:
The inhibitory activity of the molecules on AKT phosphorylation is measured either by western blotting using the technique described below, or by the MSD Multi-spot Biomarker detection technique from Meso Scale Discovery also described below.
Study of pAKT Expression in PC3 Human Prostate Carcinoma Cells Measured by Western Blotting (test A):
This test is based on measuring the expression of the AKT protein phosphorylated on serine 473. The phosphorylation of AKT (pAKT) is measured by western blotting in the PC3 human prostate carcinoma line (ATCC CRL-1435), using an antibody that specifically recognises pAKT-S473.
On day 1, the PC3 cells are seeded into 6-well plates (TPP, #92006) at the concentration of 0.8×10^6 cells/well in 1800 μl of DMEM medium (DMEM Gibco #11960-044) containing 10% of foetal calf serum (SVF Gibco, #10500-056) and 1% glutamine (L-Glu Gibco #25030-024), and incubated at 37° C., 5% CO2, overnight.
On day 2, the cells are incubated in the presence or absence of the test products for 1 to 2 hours at 37° C. in the presence of 5% CO2. The molecules, diluted in dimethyl sulphoxide (DMSO Sigma #D2650), are added from a 10-times concentrated stock solution, the final percentage of DMSO being 0.1%. The molecules are tested either at a single concentration of less than or equal to 10 μM, or at increasing concentrations in a range that can extend from less than 1 nM to 10 μM.
After this incubation, the cells are lysed for the preparation of the proteins. After the culture medium has been drawn off, the cells are rinsed with 1 ml of PBS (DPBS Gibco, #14190-094), recovered by scraping in 200 μl of complete HNTG buffer and transferred into a 96-well plate (Greiner #651201), and lysed for 1 h on ice. The HNTG buffer is composed of the following mixture: 50 mM hepes, 150 mM NaCl, 1% triton, 10% glycerol, with extemporaneous addition of one Mini Protease Inhibitor Cocktail tablet (Roche 1836153) and of one Phosphatase Inhibitor Cocktail tablet (Roche104906837001) per 10 ml of buffer.
The lysate is centrifuged for 10 min at 6000 rpm. 155 μl of supernatant are recovered. 150 μl are incubated for denaturation for 5 min at 95° C. in the presence of 4× NuPAGE LDS Sample Buffer diluted 4-fold (InVitrogen ref NP0007) and of 10× NuPAGE Sample Reducing Agent diluted 10-fold (InVitrogen ref NP0009). These samples are then frozen at −20° C. 5 μl are assayed by the microBCA technique according to the technical bulletin of the MicroBCA Protein Assay Kit (Pierce #23235).
For protein separation, 20 μg of proteins are loaded on to a NU-PAGE 4-12% Bis Tris Gel 12 well (InVitrogen ref NP0322BOX) and the migration is carried out for 1 h 30 in 20× NU-PAGE MOPS SDS Running Buffer diluted 20-fold (InVitrogen ref NP0001), at 150 volts.
The gel is then transferred on to an Invitrolon PVDF membrane (Invitrogen #LC2007) permeabilised before and after a few seconds in ethanol (Ethanol Fischer Scientific #E/0600DF/15).
The transfer is carried out in a Biorad tank at 30 volts overnight or at 60 volts for 3 hours, in the presence of 20× NUPAGE Transfer Buffer diluted 20-fold (InVitrogen ref NP0006).
The membrane is then saturated in saturating solution composed of TBS (10× Tris Buffered Saline, Sigma #T5912, diluted 10-fold), 0.1% Tween 20 (Sigma #P5927) and 3% BSA (Bovine Albumin Serum Fraction V, Sigma #A4503) for 6 h after overnight transfer or else for 1 h after transfer for a period of 3 h.
The primary antibodies are diluted to 1/1000 for the anti-phospho AKT-Ser473 antibody (1931-12, rabbit monoclonal, cat#4058 from Cell Signaling Technology Abcam), in saturating solution composed of PBS, 0.1% Tween 20 and 3% BSA, and then shaken overnight at 4° C.
Two rinses for 5 min in washing solution composed of TBS and 0.1% Tween 20 are carried out before hybridisation of the secondary antibodies. […]
On the technique in general: Immunoblotting shows a protein as a band on a membrane.

What is called IC50 is the concentration that gives 50% inhibition. A low value points to higher potency. Take `COc1ccc(CCN2c3nc(N4CCOCC4)cc(=O)n3C[C@@]2(C)C(F)(F)F)cc1` [Example 1, (S)-1-[2-(4-Methoxyphenyl)ethyl]-2-methyl-7-morpholin-4-yl-2-trifluoromethyl-2,3-dihydro-1H-imidazo[1,2-a]pyrimidin-5-one]: the IC50 came to 0.1 µM. That is a sub-micromolar value.
